# Test results from publication PMC12406258, “Uncovering the Unusual Inhibition Mechanism of a Trypanosome Alternative Oxidase Inhibitor Displaying Broad-Spectrum Activity against African Animal Trypanosomes” (Journal of Medicinal Chemistry, 2025).
# “And” between values parts separate entries of the source, which are not always exact repeats. Equal values may be shown once. Read-outs that look alike come from different tables or passages of the source.
# Assays:
# Stability in PBS buffer = conditions: 37 °C
# [1] = molecular target: T1, recombinant TAO (ΔMTS rTAO) (Trypanosoma brucei brucei, UniProt Q26710); experiment: Inhibition of ubiquinol oxidase activity of purified recombinant TAO; format: biochemical, T. brucei
# T1 construct: […]; SUMO (Small Ubiquitin-related Modifier) fusion from the expression system; made in house
# Method: This physiologically relevant rTAO enzyme was used throughout this work and in this experiment to study the inhibitory activity of 1.
# (§1) As previously described, the Ubiquinol oxidase activity measurement was carried out using recombinant TAO lacking the mitochondrial targeting signal (ΔMTS). […] The reaction was carried out in a 1 cm cuvette for 2 min using a V-630 Jasco UV–vis spectrophotometer (Jasco Corporation, Tokyo, Japan). Briefly, the procedure involves preincubating 250 ng of the enzyme for 2 min in a 50 mM Tris-HCl (pH 7.3) buffer containing the detergent octaethylene glycol monododecylether (0.05% (w/v)) in a total reaction volume of 1 mL at 25 °C. […] For the inhibition reaction, 250 ng of the enzyme was preincubated with varying inhibitor concentrations for 2 min using the same buffer before the substrate was added. […] This was achieved using the same protocol but without TAO. […] The residual activities were plotted against the corresponding inhibitor concentration in a GraphPad Prism-9 software to obtain the IC50 value.
# [2] = test system: Human Embryonic Kidney (HEK) 293-T cells; experiment: Cytotoxicity assay using Human Embryonic Kidney (HEK) 293 cells
# Method: In brief, HEK cells were grown in a culture made of 500 mL Dulbecco’s Modified Eagle’s Medium (DMEM) (Sigma), 50 mL New-born Calf Serum (NBCS) (Gibco), 5 mL L-Glutamax (200 mM, Gibco), and 5 mL Penicillin/ [...
# T. evansi WT = experiment: Resazurin-based drug sensitivity assay, T. evansi WT; format: cell-based
# Method: (§2) Other Trypanosoma species used in this study include T. evansi AntTat 3/3 (Wild-type); and T. equiperdum BoTat 1 (Bordeaux trypanozoon antigenic type 1) P (wild-type). All the trypanosomes were used only as bloodstream trypomastigotes and cultured in the standard Hirumi’s Modified Iscove’s medium #9 (HMI-9), supplemented with 10% heat-inactivated Fetal Bovine Serum (FBS), 14 μL/L β-mercaptoethanol, and 3.0 g sodium hydrogen carbonate per liter of medium (pH 7.4). Trypanosomes were cultured in vented flasks at 37 °C in a 5% CO2 atmosphere.
# (§3) Briefly, this protocol involves preparing a 96-well cell culture plate with a 100 μL serially diluted test compound (200 μM top concentration) in HMI-9 + 10% FBS (24 wells per control drug or test compound, with the 24th well serving as drug-free). This is followed by adjusting the cell density of mid-log-phase trypanosome cultures to the required concentration of 2 × 10^5 cells/mL (2 × 10^4 cells/well). […] All incubations were carried out at 37 °C with 5% CO2. […] EC50 values were calculated using GraphPad Prism 9.0 software via nonlinear regression with an equation for a sigmoidal dose–response curve with variable slope (GraphPad Software Inc., San Diego, CA, USA).
# T. equiperdum WT = experiment: Resazurin-based drug sensitivity assay, T. equiperdum WT; format: cell-based; conditions: Trypanosoma equiperdum
# Method: as §2, §3
# [3] = molecular target: T1, recombinant TAO (ΔMTS rTAO); experiment: TAO inhibitory kinetics (Lineweaver–Burk / Dixon plots); format: biochemical, T. brucei
# Method: To determine the type of inhibition with purified TAO, the kinetic assay was carried out in the presence of varying concentrations of 1 and substrate concentrations (Ubiquinol; Q1H2) (0–600 μM), with 250 ng TAO in a 1 mL (0.5 M Tris-HCl buffer, pH 7.3) reaction mix. The results were used to construct the Michaelis–Menten plot, which was then transformed to Lineweaver–Burk plots (Figure A).
# The slopes of the Lineweaver–Burk primary plot were plotted against the varying concentrations of 1. K i = −(intercept over the X-axis) of the Dixon secondary plot.
# as §1
# T. brucei B48 = experiment: microbe, parasite or virus in culture; format: cell-based, T. b. brucei; conditions: Trypanosoma brucei, read-out: T. brucei B48 EC50
# Method: as §2, §3
# T. brucei aqp1-3 null = experiment: microbe, parasite or virus in culture; format: cell-based, T. b. brucei; conditions: Trypanosoma brucei, read-out: aqp1-3 null EC50
# Method: as §2, §3
# T. congolense WT = experiment: Drug sensitivity assay, T. congolense WT bloodstream forms; format: cell-based; conditions: Trypanosoma congolense
# Method: The susceptibilities of trypanosomes to compound 1 were determined as previously described using the resazurin (Alamar Blue) assay. Briefly, this protocol involves preparing a 96-well cell culture plate with a 100 μL serially diluted test compound (200 μM top concentration) in HMI-9 + 10% FBS (24 wells per control drug or test compound, with the 24th well serving as drug-free). This is followed by adjusting the cell density of mid-log-phase trypanosome cultures to the required concentration of 2 × 10^5 cells/mL (2 × 10^4 cells/well). Then, 100 μL of the adjusted cell density/culture was added to all 24 wells in the plate, then incubating trypanosomes and test compound for 48 h followed by the addition of 20 μL filter-sterilized resazurin solution prepared by adding 25 mg resazurin sodium salt to 200 mL filter-sterilized PBS. This was followed by a further 24 h of incubation. All incubations were carried out at 37 °C with 5% CO2. […] Fluorescence was measured in the 96-well plates with a FLUOstar Optima (BMG Labtech, Durham, NC, USA) at wavelengths of 544 nm for excitation, 590 for emission, and a gain of 1250. EC50 values were calculated using GraphPad Prism 9.0 software via nonlinear regression with an equation for a sigmoidal dose–response curve with variable slope (GraphPad Software Inc., San Diego, CA, USA).
# [4] = test system: T. b. brucei WT (s427) trypomastigotes; experiment: microbe, parasite or virus in culture; format: cell-based; conditions: Trypanosoma brucei
# Method: as §2, §3
# T. b. brucei SUR10 = experiment: microbe, parasite or virus in culture; format: cell-based; conditions: Trypanosoma brucei, read-out: SUR10 EC50
# T. brucei wild type s427 = experiment: Growth curve of T. brucei s427, continuous or 24 h limited exposure; format: cell-based; conditions: 2 × and 5 × EC50
# Method: The results in Figure , which show the growth curve of T. brucei wild type s427 grown in the continuous presence or after a limited exposure (24 h) to 1, indicate that the growth pattern of cells with long-time exposure was similar to that of cells with limited exposure to 1. The compound seemed to rapidly induce an apparent growth inhibition, after approximately 4h, followed by a steep decline in population from 30 h. […] Thus, the effects of 1 on trypanosomes are irreversible before population decline begins.
# 2 Growth curve of T. brucei wild type s427 grown in either the continuous presence of 1 at indicated concentrations (filled symbols) or with the drug washed out with fresh media after 24 h (open symbols; the arrows indicate the time when compound 1 was withdrawn), or untreated (no drug control). The results presented are those of three biological repeats. Error bars represent SD of the biological replicates.
# T1 sequence (Q26710 26-329, stated change not applied): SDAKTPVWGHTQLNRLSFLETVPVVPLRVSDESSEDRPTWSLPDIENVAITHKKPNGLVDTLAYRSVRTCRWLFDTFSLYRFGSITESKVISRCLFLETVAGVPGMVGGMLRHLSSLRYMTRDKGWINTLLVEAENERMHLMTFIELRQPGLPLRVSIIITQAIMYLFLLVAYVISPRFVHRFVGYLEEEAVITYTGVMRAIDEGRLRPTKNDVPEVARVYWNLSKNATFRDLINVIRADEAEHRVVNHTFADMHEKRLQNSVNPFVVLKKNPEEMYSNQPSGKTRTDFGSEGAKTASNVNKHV
compound,measurement,setting,value
"Cc1cc(O)ccc1C(=O)OCCCCCCCCCCCCCC[P+](c1ccccc1)(c1ccccc1)c1ccccn1.[Br-] [Compound 1, {14-[(4-Hydroxy-2-methylbenzoyl)-oxy]-tetradecyl}-diphenyl(pyridin-2-yl)-Phosphonium Bromide]",Stability in PBS buffer,Stability in PBS buffer,≥ 1 h
same,IC50,[1],1.3 ± 0.07 nM
same,SI (selectivity index) for T. congolense,[2],182
same,"HEK EC50 (CC50, cytotoxicity)","[2]; HEK 293-T cells, n = 3",7490 nM and 7490 ± 100 nM
same,HEK SI (selectivity index),[2]; SI = CC50 of HEK/EC50 of T. b. b WT (no glycerol),2385
same,EC50,T. evansi WT,1.2 ± 0.1 nM
same,EC50,T. equiperdum WT,2.2 ± 0.2 nM
same,Ki,[3],3.46 nM
same,Vmax of TAO in the presence of inhibitor,[3]; 5 nM inhibitor,34.7 µmol/min/mg
same,Vmax of TAO in the presence of inhibitor,[3]; 10 nM inhibitor,21.4 µmol/min/mg
same,Vmax of TAO in the presence of inhibitor,[3]; 15 nM inhibitor,13.0 µmol/min/mg
same,Type of inhibition of TAO,[3]; Lineweaver–Burk plot,noncompetitive
same,EC50,T. brucei B48,2.5 ± 0.1 nM
same,EC50,T. brucei aqp1-3 null,1.2 ± 0.13 nM
same,EC50,T. congolense WT,41 ± 7 nM
same,EC50,"[4]; read-out: T. b. brucei WT (+5 mM glycerol) EC50, incubated in the presence of 5 mM glycerol",1.4 ± 0.5 nM
same,EC50,"[4]; s427, no glycerol, n ≥ 4, read-out: T. b. brucei WT (no glycerol) EC50",3.1 ± 0.6 nM
same,EC50,T. b. brucei SUR10,3.6 ± 0.9 nM
same,Time from which population steeply declines,T. brucei wild type s427,≥ 30 h
same,Time to apparent growth inhibition,T. brucei wild type s427,approximately 4 h
